Results published in US20170290783A1, “Rabbit Maternal Pheromones to Enhance the Weight of Weaning Piglets” (Animal Biotech, LLC, priority 2016, published 2017).

Columns and labels:
[1] = tested on: weaning piglets; assay: Post-weaning piglet performance (body weight, ADG, ADFI, G:F) after a single application of rabbit maternal pheromone to the nursery feeder; format: in vivo, pig
Source text: Piglets (n=120) were randomly selected from nursing sows. A total of 120 piglets, 60 males and 60 females, were weaned at approximately 3 weeks of age and transported for four hours before entering the nursery site. Piglets were housed in groups of three, single-sex (either barrows or gilts), and had ad libitum access to feed and water. A total of 40 pens (the experimental unit) were available; 10 each of male and female experiencing control or pheromone therapy. Space allowance was in excess of industry standards (0.6 m^2 per piglet). Body weight and feed intake were each measured once per week from commencement of weaning until 35 days after weaning.
Control and pheromone-treated piglets were housed in separate rooms, with no airflow between the rooms to ensure no cross contamination between air spaces. To expose piglets to the rabbit maternal pheromone, test piglet feeders received 25 mL of the trans-2-methyl-2-butenal solution (1 μg/mL in isopropyl alcohol) while the control piglet feeders received 25 mL of isopropyl alcohol only. Feeders were sprayed immediately before the arrival of piglets to the nursery site.
Half of the pigs and pens in each group were transported and half were moved directly from the farrowing crates to the adjacent nursery building. The experimental design was a completely random design with a two by two factorial arrangement of transport (or not) and trans-2-methyl-2-butenal or placebo control.
Average daily gain (ADG, kg. per day) was calculated from the body weights both weekly and over the entire period. Average daily feed intake (ADFI, kg. per pig per day) was calculated based on weekly feed consumption. Gain to Feed (G:F) was calculated each week and over the 28-day post-weaning period.
Data were analyzed using SAS software (SAS, 2012). PROC Univariate was used to establish that the overall ADG, ADFI and G:F ratio data were normally distributed. The general linear models procedure was used with pen as the experimental unit. There were 40 experimental units (pens) in total. The original model contained the factorial effects of (A) trans-2-methyl-2-butenal applied during transport or not, (B) trans-2-methyl-2-butenal applied to the nursery feeder or not, and (3) pig sex (barrow vs. gilt) and all possible interactions. […] A final simplified analysis was performed with only the effects of trans-2-methyl-2-butenal applied in the nursery or not with 20 pens per treatment.

[2] = tested on: re-grouped, stressed pigs; conditions: cited from earlier work

SMILES | Piglet body weight vs control ([1]; 14 days after weaning) | G:F (gain to feed) ([1]; P>0.10 vs control) | Piglet body weight vs control ([1]; at weaning and 7 days later, 25 mL of 1 μg/mL in isopropyl alcohol sprayed on feeder) | Body weight at weaning ([1]; at weaning, pigs to experience treatment, control 6.5±0.06 kg, P>0.10) [kg] | Overall ADG (average daily gain) ([1]; both the 4 and 5 week period after weaning, P<0.05 vs control) | Piglet body weight vs control ([1]; days 21, 28 and 35 after weaning, P<0.05) | ADFI (average daily feed intake) ([1]; during 4 weeks after weaning, P<0.05 vs control) | Stimulatory effect on feed intake ([1]; first week after weaning) | Improvement in body weight vs control ([1]; five weeks after weaning, P=0.01) [%] | Body weight five weeks after weaning ([1]; five weeks after weaning, control 16.5±0.31 kg, P=0.01) [kg] | ADFI and ADG ([1]; single application to the feeder in the post-weaning environment) | Overall performance measures, effect of application during transport ([1]; transport application, P>0.10) | Post-weaning ADG ([1]; weeks 3, 5 and overall, P<0.05) | ADFI ([1]; weeks 3 and 4 after weaning and overall 5-week growth period, P<0.05) | Stimulatory effect on feed intake ([1]; weeks two to five after weaning) | Pig aggressive behaviors ([2]; pig, in vivo) | Weight gain ([2]; re-grouped, stressed pigs)
C/C=C(\C)C=O [trans-2-methyl-2-butenal] | tended (P=0.06) to be heavier | not influenced | statistically similar | 6.6 ± 0.025 | increase | significantly heavier | increase | very small (and not significant) | 8.5 | 17.9 ± 0.31 | stimulate | not significant | increased | higher | increases in magnitude |  | 
C[C@]12CCC(=O)C[C@@H]1CC[C@@H]1[C@@H]2CC[C@]2(C)C=CC[C@@H]12 [Androstenone] |  |  |  |  |  |  |  |  |  |  |  |  |  |  |  | reduced | temporarily improve
